Here are results for 3 molecules from patent publication US11440923B2, “Substituted macrocyclic indole derivatives” (Bayer Aktiengesellschaft, priority 2017, dated 2022).

The IC50 is the concentration that gives 50% inhibition.

Series [1] relates to SUDHL5 cells. Put plainly: Induction of cytotoxicity in SUDHL5 cells (Assay 6). The following applies: 5 h, CellTiter-Glo; read-out: Cytotox SUDHL5 IC50 (median). The class given is cell-based. How it is done: (§1) Assay 6 Induction of Cytotoxicity Upon Treatment of Cells with Selected Compounds
(§2) In principle, compounds that induce apoptosis will concomitantly induce cell cytotoxicity. Therefore, cytotoxicity assays were run in parallel in SUDHL5 and SUDHL10 cells.
(§3) As a control, medium without cells was also added to the plate. Cells were incubated in a humidified incubator at 37° C. overnight. […] Rim wells were excluded. The cells were incubated for 5 h hours in a humidified incubator at 37° C. After this incubation, 30 μL of CellTiter-Glo® Luminescent Cell Viability reagent (Promega, G7573) was added to each well using the Multidrop Combi Reagent Dispenser, followed by 15 min incubation on a shaker at room temperature. Finally, luminescence was read at 0.1 ms, with a gain of 3000 using the PHERAstar FS microplate reader (BMG Labtech).

Series [2] has as its system SUDHL10 cells. Put plainly: Induction of cytotoxicity in SUDHL10 cells (Assay 6). As to conditions: 5 h, CellTiter-Glo; read-out: Cytotox SUDHL10 IC50 (median). It counts as cell-based. How it is done: as §1, §2, §3
A general note: ATP-based viability assays read luminescence as a measure of living cells.

Counter-ions that a name gives are not always drawn.

As for `CCc1c2c(nn1C)C(CCN1CCOCC1)OCCCCn1c(C(=O)O)c(CCCOc3cccc4cc(F)ccc34)c3ccc(Cl)c-2c31` (single isomer, unassigned; enantiomer 1) [Example 23, (+)-4-chloro-3-ethyl-7-{3-[(6-fluoronaphthalen-1-yl)oxy]propyl}-2-methyl-15-[2-(morpholin-4-yl)ethyl]-2,10,11,12,13,15-hexahydropyrazolo[4′,3′:9,10][1,6]oxazacycloundecino[8,7,6-hi]indole-8-carboxylic Acid—N-ethylethanamine (Enantiomer 1)], the IC50 was 7.8 nM in series [1] and 9.7 nM in series [2].

For `CCc1c2c(nn1C)C(CCN1CCOCC1)OCCCCn1c(C(=O)O)c(CCCOc3cccc4cc(F)ccc34)c3ccc(Cl)c-2c31` (single isomer, unassigned; enantiomer 2) [Example 24, (−)-4-chloro-3-ethyl-7-{3-[(6-fluoronaphthalen-1-yl)oxy]propyl}-2-methyl-15-[2-(morpholin-4-yl)ethyl]-2,10,11,12,13,15-hexahydropyrazolo[4′,3′:9,10][1,6]oxazacycloundecino[8,7,6-hi]indole-8-carboxylic acid—N-ethylethanamine (Enantiomer 2)], the IC50 was 1700 nM in series [1] and 6600 nM in series [2].

For `CCc1c2c(nn1C)[C@@H](CCN1CCOCC1)OCCCCn1c(C(=O)O)c(CCCOc3cccc4cc(F)ccc34)c3ccc(Cl)c-2c31` [Example 48, (15R)-4-chloro-3-ethyl-7-{3-[(6-fluoronaphthalen-1-yl)oxy]propyl}-2-methyl-15-[2-(morpholin-4-yl)ethyl]-2,10,11,12,13,15-hexahydropyrazolo[4′,3′:9,10][1,6]oxazacycloundecino[8,7,6-hi]indole-8-carboxylic Acid—N-ethylethanamine Salt], the IC50 in series [1] worked out at 210 nM; in series [2] it was 200 nM.
